Results as given in patent publication US12194007B2, “Pharmaceutical composition for preventing or treating cancer, comprising gossypol, phenformin, and anticancer agent” (National Cancer Center, priority 2018, dated 2025).

Experiments:
[1] = system: PC3 cell line or DU145 cell line; test: SRB cell proliferation assay, prostate cancer cell lines; assay type: cell-based; conditions: gossypol 5 μM, phenformin 100 μM, doxorubicin 1 nM, single, double or triple (Table 19, FIG. 7A)
[2] = system: PC3 cells xenograft tumor; test: Prostate cancer mouse model, tumor growth; assay type: in vivo, Balb/c-nu mice; conditions: gossypol 80 mg/kg, phenformin 100 mg/kg, doxorubicin 5 mg/kg, single, double or triple (Table 28, FIGS. 13A, 13B)
[3] = system: BT549 cell line or MB231 cell line; test: SRB cell proliferation assay, breast cancer cell lines; assay type: cell-based

COc1cccc2c1C(=O)c1c(O)c3c(c(O)c1C2=O)C[C@@](O)(C(=O)CO)C[C@@H]3O[C@H]1C[C@H](N)[C@H](O)[C@H](C)O1 [doxorubicin]
degree of cell proliferation with respect to the untreated control [1]: proliferation of cancer cells could be inhibited at a significant level
tumor growth level [2]: significantly inhibited tumor growth compared to the solvent control group
synergistic effect of anticancer action when mixed with gossypol and phenformin ([3]; breast cancer, named agent + gossypol 5 μM + phenformin 100 μM (Tables 13-15)): not exhibited
effect of inhibiting cell proliferation in the triple drug treatment group ([3]; cisplatin 1 μM or doxorubicin 1 μM mixed with gossypol 5 μM and phenformin 100 μM (Tables 14-15, FIGS. 5B, 5C)): level similar to that of the double drug treatment group
